Literature values as cited in US11529357B2, “Injectable carbamazepine composition essentially free of 10-bromo-carbamazepine” (H. Lundbeck A/S, priority 2019, dated 2022).

average oral bioavailability: 65-70%
Compound: NC(=O)N1c2ccccc2C=Cc2ccccc21 [carbamazepine, 5H-dibenzo[b,f]azepine-5-carboxamide]
